Results as given in patent publication US9302999B2, “Substituted triazoles as herbicides” (E. I. DU PONT DE NEMOURS AND COMPANY, priority 2012, dated 2016).

Tests used:
Type in all cases: in vivo
[1] = test system: waterhemp (common waterhemp, Amaranthus rudis); experiment: Test F pre-/postemergence: waterhemp
How it was run: (§1)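 0–100 visual control scores, taken 14–21 d after application in the greenhouse. Preemergence treatment was made to silt loam soil at sowing. Postemergence sprays hit 1- to 4-leaf plants (2–18 cm) in peat/vermiculite mix. Surfactant-containing non-phytotoxic solvent served as the vehicle.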

[2] = test system: soybean (Glycine max); experiment: Test F pre-/postemergence: soybean
How it was run: as §1

[3] = test system: arrowleaf sida (Sida rhombifolia); experiment: Test F pre-/postemergence: arrowleaf sida
How it was run: as §1

[4] = test system: windgrass (Apera spica-venti); experiment: Test D pre-/postemergence: windgrass
How it was run: (§2)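 Scores run from 0 (no effect) to 100 (complete control), assigned by visual comparison with controls after 14 to 21 days in a controlled environment. Both preemergence application to silt loam and postemergence application to 1- to 4-leaf plants were tested.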

[5] = test system: Russian thistle (Salsola iberica); experiment: Test D pre-/postemergence: Russian thistle; conditions: Postemergence; for Plant response rating, Russian Thistle: 16 g ai/ha, scale 0 to 100
How it was run: as §2

[6] = test system: deadnettle (henbit deadnettle, Lamium amplexicaule); experiment: Test D pre-/postemergence: deadnettle
How it was run: as §2

[7] = test system: oat, wild (wild oat, Avena fatua); experiment: Test D pre-/postemergence: oat, wild
How it was run: as §2

[8] = Preemergence, 16 g ai/ha, scale 0 to 100, 0 no effect, 100 complete control
[9] = Preemergence, 31 g ai/ha, scale 0 to 100, 0 no effect, 100 complete control
[10] = Preemergence, 125 g ai/ha, scale 0 to 100
[11] = Preemergence, 250 g ai/ha, scale 0 to 100
[12] = Preemergence, 62 g ai/ha, scale 0 to 100
[13] = Postemergence, 62 g ai/ha, scale 0 to 100 (0 no effect, 100 complete control)
[14] = Postemergence, 125 g ai/ha, scale 0 to 100, 0 no effect, 100 complete control
[15] = Postemergence, 16 g ai/ha, scale 0 to 100
[16] = Postemergence, 31 g ai/ha, scale 0 to 100
[17] = 31 g ai/ha, scale 0 to 100 (0 no effect, 100 complete control)
[18] = 62 g ai/ha, scale 0 to 100 (0 no effect, 100 complete control)
[19] = 125 g ai/ha, scale 0 to 100, 0 no effect, 100 complete control
[20] = Postemergence, 31 g ai/ha, scale 0 to 100 (0 no effect, 100 complete control)
[21] = Postemergence, 250 g ai/ha, scale 0 to 100
[22] = Postemergence, 62 g ai/ha, scale 0 to 100
[23] = Postemergence, 125 g ai/ha, scale 0 to 100

Cc1nn(-c2ccc(F)cc2F)nc1Oc1ccnc(C(F)(F)F)c1 [Compound 146]
Plant response rating, Waterhemp [1, 8]: 25 | Plant response rating, Waterhemp [1, 9]: 75 | Plant response rating, Waterhemp [1, 10]: 100 | Plant response rating, Waterhemp [1, 11]: 100 | Plant response rating, Soybean [2, 8]: 0 | Plant response rating, Soybean [2, 9]: 0 | Plant response rating, Soybean [2, 10]: 0 | Plant response rating, Soybean [2, 11]: 0 | Plant response rating, Arrowleaf Sida [3, 8]: 0 | Plant response rating, Arrowleaf Sida [3, 9]: 0 | Plant response rating, Arrowleaf Sida [3, 12]: 0 | Plant response rating, Arrowleaf Sida [3, 10]: 0 | Plant response rating, Arrowleaf Sida [3, 11]: 10

Cc1nn(-c2ccc(C(F)(F)F)c(F)c2)nc1Oc1ccnc(C(F)(F)F)c1 [Compound 148]
Plant response rating, Waterhemp [1, 8]: 30 | Plant response rating, Waterhemp [1, 9]: 90 | Plant response rating, Waterhemp [1, 10]: 100 | Plant response rating, Waterhemp [1, 11]: 100 | Plant response rating: Windgrass [4, 13]: 60 | Plant response rating: Windgrass [4, 14]: 80 | Plant response rating, Windgrass [4, 15]: 15 | Plant response rating, Windgrass [4, 16]: 30 | Plant response rating, Windgrass [4, 8]: 5 | Plant response rating, Windgrass [4, 9]: 10 | Plant response rating, Windgrass [4, 12]: 35 | Plant response rating, Windgrass [4, 10]: 90 | Plant response rating: Russian Thistle [5, 17]: 75 | Plant response rating: Russian Thistle [5, 18]: 85 | Plant response rating: Russian Thistle [5, 19]: 75 | Plant response rating, Russian Thistle [5]: 65 | Plant response rating: Deadnettle [6, 20]: 65 | Plant response rating: Deadnettle [6, 13]: 100 | Plant response rating: Deadnettle [6, 14]: 100 | Plant response rating, Deadnettle [6, 15]: 70 | Plant response rating, Deadnettle [6, 8]: 10 | Plant response rating, Deadnettle [6, 9]: 45 | Plant response rating, Deadnettle [6, 12]: 100 | Plant response rating, Deadnettle [6, 10]: 100 | Plant response rating, Soybean [2, 8]: 0 | Plant response rating, Soybean [2, 9]: 0 | Plant response rating, Soybean [2, 10]: 20 | Plant response rating, Soybean [2, 11]: 40 | Plant response rating, Arrowleaf Sida [3, 8]: 0 | Plant response rating, Arrowleaf Sida [3, 9]: 0 | Plant response rating, Arrowleaf Sida [3, 12]: 0 | Plant response rating, Arrowleaf Sida [3, 10]: 0 | Plant response rating, Arrowleaf Sida [3, 11]: 0 | Plant response rating: Oat, Wild [7, 20]: 15 | Plant response rating: Oat, Wild [7, 13]: 30 | Plant response rating: Oat, Wild [7, 14]: 55 | Plant response rating, Oat, Wild [7, 15]: 5 | Plant response rating, Oat, Wild [7, 8]: 5 | Plant response rating, Oat, Wild [7, 9]: 20 | Plant response rating, Oat, Wild [7, 12]: 30 | Plant response rating, Oat, Wild [7, 10]: 65

CCc1nn(-c2ccc(F)cc2)nc1Cc1ccnc(C(F)(F)F)c1 [Compound 154]
Plant response rating, Waterhemp [1, 8]: 50 | Plant response rating, Waterhemp [1, 9]: 60 | Plant response rating, Waterhemp [1, 10]: 100 | Plant response rating, Waterhemp [1, 11]: 100 | Plant response rating, Soybean [2, 8]: 0 | Plant response rating, Soybean [2, 9]: 0 | Plant response rating, Soybean [2, 10]: 25 | Plant response rating, Soybean [2, 11]: 25 | Plant response rating, Arrowleaf Sida [3, 8]: 0 | Plant response rating, Arrowleaf Sida [3, 9]: 0 | Plant response rating, Arrowleaf Sida [3, 12]: 0 | Plant response rating, Arrowleaf Sida [3, 10]: 0 | Plant response rating, Arrowleaf Sida [3, 11]: 0

CCc1nn(-c2ccc(C(F)(F)F)cc2)nc1Cc1ccnc(C(F)(F)F)c1 [Compound 155]
Plant response rating, Waterhemp [1, 10]: 100 | Plant response rating, Waterhemp [1, 11]: 100 | Plant response rating: Windgrass [4, 13]: 80 | Plant response rating: Windgrass [4, 14]: 95 | Plant response rating, Windgrass [4, 15]: 20 | Plant response rating, Windgrass [4, 16]: 70 | Plant response rating, Windgrass [4, 8]: 5 | Plant response rating, Windgrass [4, 9]: 10 | Plant response rating, Windgrass [4, 12]: 85 | Plant response rating, Windgrass [4, 10]: 100 | Plant response rating: Russian Thistle [5, 17]: 80 | Plant response rating: Russian Thistle [5, 18]: 85 | Plant response rating: Russian Thistle [5, 19]: 85 | Plant response rating, Russian Thistle [5]: 70 | Plant response rating: Deadnettle [6, 20]: 75 | Plant response rating: Deadnettle [6, 13]: 90 | Plant response rating: Deadnettle [6, 14]: 100 | Plant response rating, Deadnettle [6, 15]: 75 | Plant response rating, Deadnettle [6, 8]: 5 | Plant response rating, Deadnettle [6, 9]: 5 | Plant response rating, Deadnettle [6, 12]: 80 | Plant response rating, Deadnettle [6, 10]: 95 | Plant response rating, Soybean [2, 10]: 30 | Plant response rating, Soybean [2, 11]: 30 | Plant response rating, Arrowleaf Sida [3, 12]: 10 | Plant response rating, Arrowleaf Sida [3, 10]: 40 | Plant response rating, Arrowleaf Sida [3, 11]: 75 | Plant response rating: Oat, Wild [7, 20]: 20 | Plant response rating: Oat, Wild [7, 13]: 55 | Plant response rating: Oat, Wild [7, 14]: 75 | Plant response rating, Oat, Wild [7, 15]: 10 | Plant response rating, Oat, Wild [7, 8]: 5 | Plant response rating, Oat, Wild [7, 9]: 50 | Plant response rating, Oat, Wild [7, 12]: 15 | Plant response rating, Oat, Wild [7, 10]: 60

CCc1nn(-c2ccc(C(F)(F)F)cc2)nc1Oc1ccnc(C(F)(F)F)c1 [Compound 169]
Plant response rating, Waterhemp [1, 21]: 100 | Plant response rating, Waterhemp [1, 15]: 75 | Plant response rating, Waterhemp [1, 16]: 90 | Plant response rating, Waterhemp [1, 22]: 90 | Plant response rating, Waterhemp [1, 23]: 100 | Plant response rating, Waterhemp [1, 8]: 60 | Plant response rating, Waterhemp [1, 9]: 80 | Plant response rating, Waterhemp [1, 10]: 100 | Plant response rating, Waterhemp [1, 11]: 100 | Plant response rating, Soybean [2, 21]: 50 | Plant response rating, Soybean [2, 15]: 20 | Plant response rating, Soybean [2, 16]: 20 | Plant response rating, Soybean [2, 22]: 30 | Plant response rating, Soybean [2, 23]: 40 | Plant response rating, Soybean [2, 8]: 0 | Plant response rating, Soybean [2, 9]: 0 | Plant response rating, Soybean [2, 11]: 20 | Plant response rating, Arrowleaf Sida [3, 21]: 50 | Plant response rating, Arrowleaf Sida [3, 15]: 20 | Plant response rating, Arrowleaf Sida [3, 16]: 20 | Plant response rating, Arrowleaf Sida [3, 22]: 20 | Plant response rating, Arrowleaf Sida [3, 23]: 30 | Plant response rating, Arrowleaf Sida [3, 8]: 0 | Plant response rating, Arrowleaf Sida [3, 9]: 0 | Plant response rating, Arrowleaf Sida [3, 12]: 0 | Plant response rating, Arrowleaf Sida [3, 10]: 5 | Plant response rating, Arrowleaf Sida [3, 11]: 5

CCc1nn(-c2ccc(F)c(F)c2)nc1Oc1ccnc(C(F)(F)F)c1 [Compound 171]
Plant response rating, Waterhemp [1, 8]: 0 | Plant response rating, Waterhemp [1, 9]: 95 | Plant response rating, Waterhemp [1, 10]: 100 | Plant response rating, Waterhemp [1, 11]: 100 | Plant response rating, Soybean [2, 8]: 0 | Plant response rating, Soybean [2, 9]: 0 | Plant response rating, Soybean [2, 10]: 0 | Plant response rating, Soybean [2, 11]: 20 | Plant response rating, Arrowleaf Sida [3, 8]: 0 | Plant response rating, Arrowleaf Sida [3, 9]: 0 | Plant response rating, Arrowleaf Sida [3, 12]: 15 | Plant response rating, Arrowleaf Sida [3, 10]: 30 | Plant response rating, Arrowleaf Sida [3, 11]: 60

CCCc1nn(-c2ccc(F)c(F)c2)nc1Oc1ccnc(C(F)(F)F)c1 [Compound 172]
Plant response rating, Waterhemp [1, 21]: 100 | Plant response rating, Waterhemp [1, 16]: 95 | Plant response rating, Waterhemp [1, 23]: 100 | Plant response rating, Waterhemp [1, 9]: 98 | Plant response rating, Waterhemp [1, 10]: 100 | Plant response rating, Waterhemp [1, 11]: 100 | Plant response rating, Soybean [2, 21]: 90 | Plant response rating, Soybean [2, 16]: 50 | Plant response rating, Soybean [2, 23]: 75 | Plant response rating, Soybean [2, 9]: 0 | Plant response rating, Soybean [2, 10]: 20 | Plant response rating, Soybean [2, 11]: 20 | Plant response rating, Arrowleaf Sida [3, 21]: 100 | Plant response rating, Arrowleaf Sida [3, 16]: 65 | Plant response rating, Arrowleaf Sida [3, 23]: 90 | Plant response rating, Arrowleaf Sida [3, 9]: 30 | Plant response rating, Arrowleaf Sida [3, 10]: 95 | Plant response rating, Arrowleaf Sida [3, 11]: 100
